US9738932B2, “Biomarkers for cardiovascular side-effects induced by cox-2 inhibitory compounds” (FIRALIS SAS, priority 2005, dated 2017)

Tested on: mRNA expression in cardiovascular tissues
Assay: Affymetrix GeneChip mRNA expression profiling of monkey tissues (iliac vein, pulmonary vein, aorta, carotid artery, heart) after two-week oral-gavage treatment
Conditions: iliac vein; group avg, Vioxx without A60055

O=C(O)Cc1ccccc1Nc1c(Cl)cccc1Cl [Voltaren]
5.6 fold: IFI27 (202411_at) avg fold change vs control
1.1 fold: HLA-A (211528_x_at) avg fold change vs control | HLA-DRA (208894_at) avg fold change vs control | HLA-DRB3 (209312_x_at) avg fold change vs control | ICAM1 (215485_s_at) avg fold change vs control | ICSBP1 (204057_at) avg fold change vs control | IRF1 (202531_at) avg fold change vs control | JAK1 (214377_s_at) avg fold change vs control | LYN (210754_s_at) avg fold change vs control | PRG1 (201858_s_at) avg fold change vs control | STAT1 (AFFX-HUMISGF3A/M97935_MB_at) avg fold change vs control | TNFSF10 (202688_at) avg fold change vs control
0.8 fold: HHL (203020_at) avg fold change vs control | IFIT2 (217502_at) avg fold change vs control | IGFBP4 (201508_at) avg fold change vs control | LAIR1 (208071_s_at) avg fold change vs control | LILRB1 (207857_at) avg fold change vs control | PRC1 (218009_s_at) avg fold change vs control
1.4 fold: IFI30 (201422_at) avg fold change vs control | INDO (210029_at) avg fold change vs control | ISGF3G (203882_at) avg fold change vs control | LILRB3 (208594_x_at) avg fold change vs control | LY96 (206584_at) avg fold change vs control | SOCS3 (206360_s_at) avg fold change vs control | TLR2 (204924_at) avg fold change vs control | VCAM1 (203868_s_at) avg fold change vs control | XLKD1 (219059_s_at) avg fold change vs control
1.6 fold: HLA-A (211530_x_at) avg fold change vs control | HLA-DQB1 (211654_x_at) avg fold change vs control | IFITM2 (201315_x_at) avg fold change vs control | LRMP (204674_at) avg fold change vs control
2.1 fold: cig5 (213797_at) avg fold change vs control
1.7 fold: IFI44 (214453_s_at) avg fold change vs control | TNFAIP3 (202644_s_at) avg fold change vs control
1.2 fold: HLA-A (211529_x_at) avg fold change vs control | HLA-B (208729_x_at) avg fold change vs control | HLA-B (209140_x_at) avg fold change vs control | HLA-B (211911_x_at) avg fold change vs control | HLA-C (208812_x_at) avg fold change vs control | HLA-DQA1 (212671_s_at) avg fold change vs control | HLA-DQB1 (211656_x_at) avg fold change vs control | HLA-E (200905_x_at) avg fold change vs control | HLA-E (217456_x_at) avg fold change vs control | IGF1 (209541_at) avg fold change vs control | IL1A (208200_at) avg fold change vs control | IL2RG (204116_at) avg fold change vs control | INPP5D (203332_s_at) avg fold change vs control | IRF7 (208436_s_at) avg fold change vs control | KLKB1 (206541_at) avg fold change vs control | LCP2 (205270_s_at) avg fold change vs control | LILRB1 (211100_x_at) avg fold change vs control | LY86 (205859_at) avg fold change vs control | PRG1 (201859_at) avg fold change vs control | TNFSF6 (210865_at) avg fold change vs control | TNFSF10 (202687_s_at) avg fold change vs control | TRGC2 (216920_s_at) avg fold change vs control
2.3 fold: STAT1 (209969_s_at) avg fold change vs control
1.5 fold: HLA-C (216526_x_at) avg fold change vs control | ICAM1 (202638_s_at) avg fold change vs control | PLSCR1 (202446_s_at) avg fold change vs control
0.9 fold: HFE (211329_x_at) avg fold change vs control | HFE (211332_x_at) avg fold change vs control | HFE (211866_x_at) avg fold change vs control | IFIT4 (204747_at) avg fold change vs control | LCK (204890_s_at) avg fold change vs control | MAF (209348_s_at) avg fold change vs control | PTPN22 (206060_s_at) avg fold change vs control | TCTEL1 (201999_s_at) avg fold change vs control
1.8 fold: XCL1 (206366_x_at) avg fold change vs control
1.3 fold: HLA-A (215313_x_at) avg fold change vs control | HLA-C (214459_x_at) avg fold change vs control | HLA-DMA (217478_s_at) avg fold change vs control | HLA-DQB1 (209823_x_at) avg fold change vs control | HLA-DRB1 (215193_x_at) avg fold change vs control | IFITM3 (212203_x_at) avg fold change vs control | IL27RA (205926_at) avg fold change vs control | LILRB3 (210225_x_at) avg fold change vs control | PTPRC (207238_s_at) avg fold change vs control | TLR1 (210176_at) avg fold change vs control | TNFAIP3 (202643_s_at) avg fold change vs control
0.5 fold: XCL1 (214567_s_at) avg fold change vs control
0.3 fold: PCOLCE (202465_at) avg fold change vs control
2.2 fold: HLA-DQB2 (212998_x_at) avg fold change vs control
1.0 fold: HFE (211863_x_at) avg fold change vs control | HLA-DMB (203932_at) avg fold change vs control | HLA-DRA (210982_s_at) avg fold change vs control | HLA-DRB6 (217362_x_at) avg fold change vs control | HLA-F (204806_x_at) avg fold change vs control | HLA-F (221875_x_at) avg fold change vs control | IFIT1 (203153_at) avg fold change vs control | ITGB2 (202803_s_at) avg fold change vs control | PLA2G4C (209785_s_at) avg fold change vs control | PLCL2 (216217_at) avg fold change vs control | STAT1 (AFFX-HUMISGF3A/M97935_5_at) avg fold change vs control | STAT1 (AFFX-HUMISGF3A/M97935_MA_at) avg fold change vs control | TAPBP (208829_at) avg fold change vs control | TRGC2 (211144_x_at) avg fold change vs control
